Data set [1] concerns 6-OHDA unilaterally lesioned Sprague-Dawley rats. Kind of data set: Abnormal involuntary movements (AIMs) test, Examples 1 and 2. The settings on record: for effect of test drug on L-dopa-induced AIMs (dyskinesia): L-dopa day 1 (50 mg/kg), L-dopa and test drug day 2; for abnormal involuntary movements (AIMs) score compared to vehicle-treated rats: once daily, scored 60 min after injection, L-dopa 6 mg/kg for 5 days, Sydnocarb 10 and 30 mg/kg, no combination. On the procedure: Female, Sprague-Dawley rats (Charles River Laboratories) at 7 to 8 weeks of age were used. Animals were assigned randomly to treatment groups. The diet consisted of standard rodent chow and water ad libitum.
6-OHDA was formulated at 5 mg/ml solution in 0.03% ascorbic acid in sterile 0.9% NaCl. Three μL of 6-OHDA was injected into the median forebrain bundle at the following stereotaxic coordinates from bregma: Anteroposterior (A/P) −4.0 mm; mediolateral (M/L) −1.3 mm; ventrodorsal (V/D) −8.0 mm with reference to the top of the skull.
After lesion, rats were allowed to recover for two weeks and then tested for amphetamine-induced rotational activity. Animals were treated with 25 mg/kg amphetamine in saline and recorded in an open-field chamber for 90 minutes. Only rats rotating greater than 4 times per minute were used in efficacy studies. After an additional one week, rats were treated with L-dopa (Isotec IY0630) at various times and measured for the appearance of abnormal involuntary movements (AIMs).
The AIMs test was carried out as follows: 1) weigh rat and inject with L-dopa/benserazide (10 ml/kg, ip); may be a single injection per day over multiple days; administration of a test compound or reference compound may also be included; 2) place rat in empty cage, start video recording; 3) AIMs were assessed in four areas: a) onset of symptoms-latency (seconds) to first visual AIM as defined below; b) 30 minute AIM score; c) 60 minute AIM score; and d) number of left rotations from 30-60 minutes; 4) AIMs were scored and recorded on a scale from 0 to 4: i) absent; ii) slight left forelimb dystonia with grooming; iii) excessive left forelimb dystonia with grooming; iv) left forelimb dystonia with left circling; and v) continuous left circling with or without grooming; 5) record any unusual clinical signs; and 6) after 60 minutes, stop recording, place rat back into home cage.
Sixty minutes after injection, abnormal involuntary movements (AIMs) were scored.
Rats receiving a unilateral 6-OHDA lesion as described above were treated with L-dopa (day 1, 50 mg/kg) and then L-dopa and test drug (day 2, Sydnocarb or Tesofensine).

The subject of data set [2] is C57Bl/6 mice treated with MPTP. Description: Open Field Activity assay after MPTP. Format: in vivo, mouse. The settings on record: compound 30 min prior to MPTP (3x20 mg/kg) and daily for 4 days; measured day 5, 30 min open field. On the procedure:
An Open Field Activity assay was performed in which locomotor and sensorimotor parameters were evaluated in an automated open-field apparatus. 1-methyl-4-phenyl-1,2,3,6-tetrahydropyridine (MPTP) injections (3×20 mg/kg) were performed in C57Bl/6 mice at two-hour intervals (final dose of MPTP=60 mg/kg). Mice were treated with the compound 30 minutes prior to MPTP and daily for 4 days. Locomotor activity was monitored on day 5, thirty minutes after administration of test compound. Locomotor activity was measured in an automated open-field (MedAssociates) for 30 minutes. The following parameters were measured: 1) horizontal distance traveled, 2) number of rearing events and 3) stereotypic behavior.

Data set [3] concerns unilaterally lesioned 6-OHDA rats. Kind of data set: Axial, limb and orolingual (ALO) AIMs rating, chronic dosing.
The test system of data set [4] is 6-OHDA-lesioned rats. Description: Forelimb adjusting step (FAS) test. It counts as in vivo, rat. As to the method: In 6-OHDA-lesioned rats, L-dopa administration also elicits a therapeutically beneficial anti-akinetic activity that can be measured by the forelimb adjusting step (FAS) test. To determine the effect of Sydnocarb on L-dopa efficacy on this motor function, 6-OHDA-lesioned rats were treated with L-dopa in combination with Sydnocarb at 10 mg/kg and assessed by the FAS test (see, FIG. 3).
For three consecutive days, the experimenter that performed the study handled the rats so they were familiar with the experimenter's grip: the rat was held with one hand fixing the hindlimbs and slightly raising the hind part above the surface; the other hand fixed the forelimb not to be monitored; the forelimb to be monitored was touching the table; the animal was moved slowly sideways (approx. 5 sec for 90 cm), first in the forehand and then in the backhand; and these steps were repeated for the other forelimb. Forehand is defined as compensating movement toward the body and backhand is defined as compensating movement away from the body.
Each stepping test consisted of six trials for each forepaw, alternating between directions both forehand and backhand as follows: the rat was held in the same position as described above with one paw touching the table; the rat was moved slowly sideways (approx 5 sec for 90 cm), first in the forehand and then in the backhand; the number of adjusting steps for both paws in the forehand and back hand directions of movement were counted and recorded; and the sequence of testing was left paw forehand and backhand adjusting stepping, followed by right paw backhand and forehand directions. The rat was returned to its home cage and the sequence repeated with the second rat in the cage. Five more trials were performed for each rat, placing the rats back in their home cage between trials.
This portion of the experiment was run 3-4 weeks post 6-OHDA lesion, and at least 1 week post rotations testing as follows: prior to the start of dosing, rats were trained and baselines performed as above; preparation of L-dopa with benserazide (concentrations are for i.p. injection, 10 ml/kg): a) L-dopa dissolved in saline at 1.2 mg/ml; and b) benserazide dissolved in saline at 0.4 mg/ml; preparation of sydnocarb 10 mg/kg (concentrations are for i.p. injection, 10 ml/kg): a) sydnocarb dissolved in 0.5% methylcellulose, 0.2% tween 80 in dH2O at 1 mg/ml.
Rats were weighed and injected with L-dopa/benserazide (12 mg/kg/4 mg/kg). FAS were run approximately 60 minutes post L-dopa/benserazide dose. Rats were returned to home cage.
Rats were weighed and injected with sydnocarb 10 mg/kg or vehicle (0.5% methylcellulose, 0.2% tween 80 in dH2O), 30 minutes prior to L-dopa/benserazide dosing. The rest of the study was continued as described in Day 1.
Data were represented as percent by summing steps (forward and backhand) of the lesioned forelimb and dividing by the sum of the steps of the intact forelimb and multiplying by 100, giving a measure of the degree of forepaw disability. A similar calculation was obtained for percent of lesioned forelimb, giving a measure of gain of function.
Sprague-Dawley rats (6/group) were injected unilaterally with 6-OHDA as described above. […] Forepaw adjusting steps were scored and graphed as a percent of the intact (unaffected) forelimb. […] (**p<0.01, p=0.058, One-way ANOVA with post-hoc t-test compared to veh+veh). […] Moreover, Sydnocarb may allow the use of lower therapeutic doses of L-dopa, thereby reducing potential L-dopa-induced side effects.
L-dopa was administered at a dose level of 6 mg/kg (ip) along with benserazide (ip; 2 mg/kg). […] For these 6 mg/kg L-dopa studies, rats were combined from two previous L-dopa/Sydnocarb studies and allowed a 3-week wash out period.
After an additional one week, baseline FAS was measured and rats were treated with L-dopa at 6 mg/kg and Sydnocarb at 3 and 10 mg/kg (ip) for 12 days. […]

Data set [5] deals with DA transporter (DAT) (Homo sapiens, UniProt Q01959). To be noted: Gruner et al. 2011; cited from earlier work.
Sequence of DA transporter (DAT) (Q01959 whole entry, species assumed): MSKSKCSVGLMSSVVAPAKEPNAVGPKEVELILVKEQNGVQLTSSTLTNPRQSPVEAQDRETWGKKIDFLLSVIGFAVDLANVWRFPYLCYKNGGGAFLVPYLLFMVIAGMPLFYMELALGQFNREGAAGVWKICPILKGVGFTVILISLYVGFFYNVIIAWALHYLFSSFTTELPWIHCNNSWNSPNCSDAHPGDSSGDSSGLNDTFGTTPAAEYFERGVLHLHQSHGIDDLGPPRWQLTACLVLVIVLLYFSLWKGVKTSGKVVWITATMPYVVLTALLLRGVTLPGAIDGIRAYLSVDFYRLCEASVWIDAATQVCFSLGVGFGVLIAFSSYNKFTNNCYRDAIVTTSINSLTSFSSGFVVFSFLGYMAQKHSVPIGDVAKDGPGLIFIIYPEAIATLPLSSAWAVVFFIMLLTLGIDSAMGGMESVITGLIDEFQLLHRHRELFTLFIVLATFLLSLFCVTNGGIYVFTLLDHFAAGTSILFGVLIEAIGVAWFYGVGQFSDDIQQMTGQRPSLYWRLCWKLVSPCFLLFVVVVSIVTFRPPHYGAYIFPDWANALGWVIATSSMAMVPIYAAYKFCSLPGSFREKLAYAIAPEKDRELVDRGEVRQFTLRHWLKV
Data set [6] has as its system C57Bl/6 mice. Description: Mouse electroencephalogram, time awake. To be noted: intraperitoneal injection 4 hours after lights-on. Format: in vivo. As to the method:
Electroencephalographic data were obtained in C57Bl/6 mice chronically implanted with electrodes to monitor brain and muscular activity. The percent time spent awake was evaluated following intraperitoneal injections of Sydnocarb 4 hours after lights-on, when mice are predominantly sleeping.

The conditions of data set [7]: Gruner et al. 2011; cited from earlier work.
The conditions of data set [8]: humans and animals; cited from earlier work.
The subject of data set [9] is extracellular DA. The settings on record: rat striatum and nucleus accumbens; cited from earlier work.
The conditions of data set [10]: equimolar doses, cited from earlier work.
Data set [11] deals with noradrenaline reuptake. To be noted: rat synaptosomes; Erdö et al. 1981; cited from earlier work.
For data set [12] the following is noted: humans; cited from earlier work.
Where [13] appears, read: L-dopa 12 mg/kg and Sydnocarb 10 mg/kg ip (day 2).

`CCOC[C@@H]1[C@@H](c2ccc(Cl)c(Cl)c2)C[C@@H]2CC[C@H]1N2C` [Tesofensine]: the “effect of test drug on L-dopa-induced AIMs (dyskinesia)” value in data set [1] is “had no affect on AIMs”. The “vertical activity (rearing events)” value in data set [2] is given as “prevent decrease in vertical activity”.

On to `N[C@@H](Cc1ccc(O)c(O)c1)C(=O)O` [L-dopa], for which, in data set [1], the “abnormal involuntary movements (AIMs) score compared to vehicle-treated rats” value is reported as “significantly higher AIMs scores”. In addition, in data set [1] (two-day treatment with L-dopa, 50 mg/kg), the “abnormal involuntary movements (AIMs) caused by L-dopa” value is “increase in abnormal involuntary movements”. For the same compound, the “sum of ALO AIMs compared to baseline” value in data set [3] (L-dopa 12 mg/kg ip with benserazide, chronic dosing) is “increase in AIMS compared to baseline”. Further, in data set [4] (L-dopa 6 mg/kg ip alone, 12 days), the “FAS, % affected paw compared to baseline” value is recorded as “slight increase in adjusting steps compared to baseline”. Also, in data set [4] (L-dopa 12 mg/kg alone), the “forepaw adjusting steps, percent of the intact forelimb, compared to vehicle” value is on record as “slight increase in steps compared to vehicle”.

For `CC(Cc1ccccc1)[n+]1cc([N-]C(=O)Nc2ccccc2)on1` (stereo not drawn) [Sydnocarb, 3-(β-phenylisopropyl)-N-phenylcarbamoylsydnonimine], in data set [1], the “effect of test drug on L-dopa-induced AIMs (dyskinesia)” value is on record as “ameliorates L-dopa-induced dyskinesia” and the “abnormal involuntary movements (AIMs) score compared to vehicle-treated rats” value is “did not cause significant AIMs”. For the same compound, the “reduction of L-dopa-induced AIMs” value in data set [1] (Sydnocarb administered 30 min after L-dopa, seen 30 and 60 minutes after L-dopa administration) is “approximately 40%”. The DAT activity result in data set [5] was “has DAT activity”. The “sum of ALO AIMs compared to vehicle” value in data set [3] (L-dopa 12 mg/kg and Sydnocarb 10 and 30 mg/kg ip for 12 days, days 1, 8, 10, 12) is listed as “decrease in AIMs compared to vehicle”. The “sum of ALO AIMs compared to vehicle” value in [3] (L-dopa 12 mg/kg and Sydnocarb 10 and 30 mg/kg po for 12 days, days 5 and 12) is on record as “decrease in AIMs compared to vehicle”. Further, the “AIMs scores relative to L-dopa treatment” value in data set [3] (Sydnocarb 3 mg/kg ip for 12 days, no L-dopa) is reported as “approximately 20 times lower”. The “sum of ALO AIMs, Sydnocarb alone” value in data set [3] (Sydnocarb 3 mg/kg ip for 12 days, no L-dopa, days 5 and 12) was “nominal AIMs”. For the same compound, in data set [2], the “vertical activity (rearing events)” value is recorded as “prevent decrease in vertical activity”. In addition, the “percent time spent awake compared to vehicle controls” value in data set [6] is “dose-dependently increased time awake”. The “FAS adjusting steps compared to vehicle” value in data set [4] (L-dopa 6 mg/kg and Sydnocarb 3 mg/kg ip for 12 days, days 5 and 12) is listed as “increase in adjusting steps compared to vehicle”. In addition, the “FAS adjusting steps compared to vehicle (L-dopa alone)” value in data set [4] (L-dopa 6 mg/kg and Sydnocarb 10 mg/kg po for 12 days, day 12, 60 min post-dose) is “slight increase, and importantly no decrease, in adjusting steps”. Besides, in data set [4] (setting [13]), the “forepaw adjusting steps as percent of the intact forelimb” value is roughly 100% and the “forepaw adjusting steps, percent of the intact forelimb, compared to vehicle” value was “significant increase”. Further, the “adjusting step scores compared to L-dopa alone” value in data set [4] (Sydnocarb 10 mg/kg with L-dopa) is “increased scores compared to L-dopa alone”. The rebound hypersomnolence result in [7] is given as “lacks the rebound hypersomnolence”. Further, in [8], the metabolite formed entry is reported as “metabolized to D-amphetamine”. The “extracellular DA increase compared with D-AMPH” value in data set [9] was “slower and more gradual increase in extracellular DA”. Also, the “markers of neurotoxicity relative to D-AMPH” value in data set [10] (DA depletion, reactive oxygen species, lipid peroxidation) was “smaller changes in the markers of neurotoxicity”. For the same compound, the “hyperlocomotion and stereotypy relative to D-AMPH” value in data set [10] was “less hyperlocomotion and stereotypy”. Moreover, the noradrenaline reuptake entry in data set [11] is listed as “attenuates noradrenaline reuptake”. Also, the “toxic episodes and abuse potential” value in data set [12] is recorded as “neither significant toxic episodes nor abuse potential have been reported”.

The values above are taken from US10188651B2, “Methods of treating sleep disorders” (Melior Pharmaceuticals II, LLC, priority 2013, dated 2019).
